According to patent US20160046610A1, “3-HETEROARYL SUBSTITUTED INDAZOLES” (BAYER PHARMA AKTIENGESELLSCHAFT, priority 2013, published 2016):
Read-outs that look alike come from different tables or passages of the source.

Tests used:
HeLa cell line = test: Proliferation assay (HeLa cell line), crystal violet staining; assay type: cell-based; settings: Homo sapiens, 96 h, read-out: Biological Assay 2: Proliferation assay (HeLa cell line) median IC50
Description: Cultivated tumor cells (cells were ordered from ATCC, except HeLa-MaTu and HeLa-MaTu-ADR, which were ordered from EPO-GmbH, Berlin) were plated at a density of 1000 to 5000 cells/well, depending on the growth rate of the respective cell line, in a 96-well multititer plate in 200 μL of their respective growth medium supplemented 10% fetal calf serum. After 24 hours, the cells of one plate (zero-point plate) were stained with crystal violet (see below), while the medium of the other plates was replaced by fresh culture medium (200 μL), to which the test substances were added in various concentrations (0 μM, as well as in the range of 0.001-10 μM; the final concentration of the solvent dimethyl sulfoxide was 0.5%). The cells were incubated for 4 days in the presence of test substances. Cell proliferation was determined by staining the cells with crystal violet: the cells were fixed by adding 20 μl/measuring point of an 11% glutaric aldehyde solution for 15 minutes at room temperature. After three washing cycles of the fixed cells with water, the plates were dried at room temperature. The cells were stained by adding 100 μl/measuring point of a 0.1% crystal violet solution (pH 3.0). After three washing cycles of the stained cells with water, the plates were dried at room temperature. The dye was dissolved by adding 100 μl/measuring point of a 10% acetic acid solution. Absorption was determined by photometry at a wavelength of 595 nm. The change of cell number, in percent, was calculated by normalization of the measured values to the absorption values of the zero-point plate (=0%) and the absorption of the untreated (0 μm) cells (=100%). The IC50 values were determined by means of a 4 parameter fit using the company's own software.

[1] = target: T1, catalytic domain of human Bub1 (amino acids 704-1085) (Homo sapiens, UniProt O43683); test: Bub1 kinase assay (TR-FRET); assay type: biochemical
T1 construct: catalytic domain of human Bub1 (amino acids 704-1085); His6 (N); made in house; host or cells: Hi5 insect cells
T1 sequence (O43683 704-1085): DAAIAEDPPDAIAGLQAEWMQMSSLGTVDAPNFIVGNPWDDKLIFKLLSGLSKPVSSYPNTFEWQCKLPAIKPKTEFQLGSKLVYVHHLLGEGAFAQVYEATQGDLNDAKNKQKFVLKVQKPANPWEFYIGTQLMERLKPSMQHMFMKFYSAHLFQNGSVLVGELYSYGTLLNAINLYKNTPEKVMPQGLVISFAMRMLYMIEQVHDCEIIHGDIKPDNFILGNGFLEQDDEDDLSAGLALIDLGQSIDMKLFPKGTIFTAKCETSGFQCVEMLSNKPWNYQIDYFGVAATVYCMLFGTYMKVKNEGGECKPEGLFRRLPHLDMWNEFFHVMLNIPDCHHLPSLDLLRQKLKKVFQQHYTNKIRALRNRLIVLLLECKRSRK
Description: To this end, 100-fold concentrated compound solutions (in DMSO) were previously prepared by serial dilution (1:3.4) of 2 mM stocks in a clear low volume 384-well source microtiter plate (Greiner Bio-One, Frickenhausen, Germany), from which 50 nl of compounds were transferred into a black low volume test microtiter plate from the same supplier. […] The resulting mixture (5 μL final volume) was incubated at 22° C. during 60 min., and the reaction was stopped by the addition of 5 μL of an aqueous EDTA-solution (50 mM EDTA, in 100 mM HEPES pH 7.5 and 0.2% (w/v) bovine serum albumin) which also contained the TR-FRET detection reagents (0.2 μM streptavidin-XL665 [Cisbio Bioassays, Codolet, France] and 1 nM anti-phosho-Serine antibody [Merck Millipore, cat. #35-001] and 0.4 nM LANCE EU-W1024 labeled anti-mouse IgG antibody [Perkin-Elmer, product no. AD0077, alternatively a Terbium-cryptate-labeled anti-mouse IgG antibody from Cisbio Bioassays can be used]). The stopped reaction mixture was further incubated 1 h at 22° C. in order to allow the formation of complexes between peptides and detection reagents. Subsequently, the amount of product was evaluated by measurement of the resonance energy transfer from the Eu-chelate-antibody complex recognizing the Phosphoserine residue to the streptavidin-XL665 bound to the biotin moiety of the peptide. […] IC50 values were calculated by fitting the normalized inhibition data to a 4-parameter logistic equation (Minimum, Maximum, IC50, Hill; Y=Max+(Min−Max)/(1+(X/IC50)Hill)).

[2] = TR-FRET, recombinant catalytic domain of human Bub1, ATP 10 μM, peptide substrate 1 μM, median value, read-out: Biological Assay 1: Bub1 kinase assay median IC50

Row | Compound | IC50 (HeLa cell line; HeLa) | IC50 [1, 2] | IC50 (HeLa cell line; HeLa cells, incubated for 4 days with test substance, crystal violet staining, median value) | IC50 [1]
1 | CCOc1cc(F)c(Cn2nc(-c3ncc(OC)c(Nc4cn[nH]c4)n3)c3ccccc32)c(F)c1 [Example 2-10-2, 2-[1-(4-ethoxy-2,6-difluorobenzyl)-1H-indazol-3-yl]-5-methoxy-N-(1H-pyrazol-4-yl)pyrimidin-4-amine] | > 10 µM | 0.0047 µM | – | –
2 | Fc1ccc(Cn2nc(-c3cc(Nc4ccncn4)ccn3)c3ccccc32)c(F)c1 [Example 2-11-1, N-{2-[1-(2,4-difluorobenzyl)-1H-indazol-3-yl]-pyridin-4-yl}pyrimidin-4-amine] | – | – | > 10 µM | 0.066 µM
3 | CCOc1cc(F)c(Cn2nc(-c3ncc(OC)c(Nc4ccccc4C(N)=O)n3)c3ccccc32)c(F)c1 [Example 2-12-1, 2-({2-[1-(4-ethoxy-2,6-difluorobenzyl)-1H-indazol-3-yl]-5-methoxypyrimidin-4-yl}amino)benzamide] | > 10 µM | 0.92 µM | – | –
4 | CCOc1cc(F)c(Cn2nc(-c3ncc(OC)c(Nc4ccccc4C(=O)NC)n3)c3ccccc32)c(F)c1 [Example 2-12-2, 2-({2-[1-(4-ethoxy-2,6-difluorobenzyl)-1H-indazol-3-yl]-5-methoxypyrimidin-4-yl}amino)-N-methylbenzamide] | 1.1 µM | 1.1 µM | – | –
5 | CCOc1cc(F)c(Cn2nc(-c3ncc(OC)c(Nc4ccc(F)cc4C(=O)NC)n3)c3ccccc32)c(F)c1 [Example 2-12-3, 2-({2-[1-(4-ethoxy-2,6-difluorobenzyl)-1H-indazol-3-yl]-5-methoxypyrimidin-4-yl}amino)-5-fluoro-N-methylbenzamide] | 1.2 µM | 6.8 µM | – | –
6 | CCOc1cc(F)c(Cn2nc(-c3ncc(OC)c(Nc4ccc(F)cc4C(N)=O)n3)c3ccccc32)c(F)c1 [Example 2-12-4, 2-({2-[1-(4-ethoxy-2,6-difluorobenzyl)-1H-indazol-3-yl]-5-methoxypyrimidin-4-yl}amino)-5-fluorobenzamide] | 2.4 µM | 0.11 µM | – | –
